Earlier results, collected in patent US20090318549A1, “COMBINATION TREATMENT OF GLAUCOMA” (QLT Plug Delivery, Inc., priority 2008, published 2009).

What was measured:
[1] = man, after topical administration

In the case of `CC(C)OC(=O)CCC/C=C\C[C@@H]1[C@@H](CC[C@@H](O)CCc2ccccc2)[C@H](O)C[C@@H]1O` [Latanoprost, isopropyl-(Z)-7[(1R,2R,3R,5S)3,5-dihydroxy-2-[(3R)-3-hydroxy-5-phenylpentyl]cyclopentyl]-5-heptenoate], the “time at which the peak concentration in the aqueous humor is reached” value [1] is given as “about two”, the “solubility in acetone, ethanol, ethyl acetate, isopropanol, methanol and octanol” value (acetone, ethanol, ethyl acetate, isopropanol, methanol, octanol) is given as “freely soluble” and the solubility in acetonitrile (acetonitrile) is given as “very soluble”. The solubility in water (water) was “practically insoluble”.
